The experiment concerns the target human P2Y12 receptor (Homo sapiens, UniProt Q9H244). As to the kind of experiment: Human P2Y12 recombinant cell membrane binding assay with 33P 2MeS-ADP. The following applies: competition against 33P 2MeS-ADP, membranes of CHO cells with recombinant human P2Y12 receptor. As to the method: The ability of the compounds of the formula Ito inhibit the P2Y12 receptor can be assessed by determining the concentration of the compound of the formula I that binds to the human P2Y12 Recombinant Cell Membrane Binding Assay with 33P 2MeS-ADP.
Human P2Y12 Recombinant Cell Membrane Binding Assay
The ability of a test compound to bind to the P2Y12 receptor was evaluated in a recombinant cell membrane binding assay. In this competitive binding assay, the test compound competed against a radiolabeled agonist for binding to the P2Y12 receptor, expressed on the cell membrane. Inhibition of binding of the labeled material was measured and correlated to the amount and potency of the test compound. This binding assay is a modification of the procedure described by Takasaki, J. et. al, Mol. Pharmacol., 2001, Vol. 60, pg. 432. A membrane preparation was prepared from Chinese Hamster Ovary (CHO) cells with recombinant expression of the human P2Y12 receptor according to standard procedures as a source of P2Y12.
To a 96-well microtiterplate the following were added: a) 24 μl of assay buffer (10 mM HEPES, 138 mM NaCl, […] KCl, 12 mM NaHCO3, 1 mM EDTA-Na, 0.1% BSA, pH 7.4) b) 1 μL compound in DMSO c) 50 μL P2Y12 CHO membrane (20 μg/ml) and after 15 min at RT d) 25 μL of 1.61 nM 33P 2MeS-ADP (Perkin Elmer NEN custom synthesis, specific activity ˜2100 Ci/mmol) made in assay buffer.
After 20 min incubation at RT samples were transferred to 96-well microtiter filterplates (Millipore HTS GF/B), pre-wetted for 20 min with 300 μL of stop buffer (10 mM HEPES, 138 mM NaCl pH 7.4) and then filtered through completely with a Millipore plate vacuum. Next, wells were washed four times with 400 μl/well of stop buffer on a plate vacuum. The plate was disassembled and allowed to air dry overnight with the filter side up over night. The filter plates were snapped into adapter plates and 0.1 mL of Microscint 20 Scintillation Fluid (Perkin Elmer #6013621) was added to each well. The top of the filterplate was sealed with plastic plate covers. The sealed filterplate were incubated 2 hours at RT. A Microbeta Scintillation Counter was used to measure counts.
Compounds were diluted as 10 mM DMSO stocks and tested in a four-point, five-fold dilution series run in triplicate beginning at 10 μM, final concentration. Data were analyzed using a four-parameter curve fit with a fixed minimum and maximum experimentally defined as the average positive and negative controls on each plate.

Chain of human P2Y12 receptor (Q9H244 whole entry): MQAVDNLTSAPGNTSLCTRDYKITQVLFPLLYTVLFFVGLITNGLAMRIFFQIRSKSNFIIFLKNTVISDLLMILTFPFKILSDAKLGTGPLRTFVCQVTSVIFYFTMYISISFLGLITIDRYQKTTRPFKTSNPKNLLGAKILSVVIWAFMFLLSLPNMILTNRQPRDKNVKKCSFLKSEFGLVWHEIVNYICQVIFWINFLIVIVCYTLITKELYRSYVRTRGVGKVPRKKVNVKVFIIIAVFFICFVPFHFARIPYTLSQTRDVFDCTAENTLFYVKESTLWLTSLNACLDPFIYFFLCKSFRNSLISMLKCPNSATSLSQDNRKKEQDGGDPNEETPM

Usually IC50 stands for the concentration at which inhibition is half-maximal. Take `CCOC(=O)N1CCN(C(=O)[C@H](CCC(=O)O)NC(=O)c2cc(OCC(=O)N3CCC[C@H]3C(=O)NCC3CC3)n(-c3ccccc3)n2)[C@H](C)C1` [Example 152, (R)-4-[(S)-4-Carboxy-2-({5-[2-((S)-2-(cyclopropylmethyl-carbamoyl)-pyrrolidin-1-yl)-2-oxo-ethoxy]-1-phenyl-1H-pyrazole-3-carbonyl}-amino)-butyryl]-3-methyl-piperazine-1-carboxylic acid ethyl ester]: the IC50 was determined as 37 nM.
As to `CCOC(=O)N1CCN(C(=O)[C@H](CCNC(=O)C(C)C)NC(=O)c2cc(OCC(=O)N3CCC[C@H]3C(=O)NC3CCC3)n(-c3ccccc3)n2)CC1` [Example 100, 4-[(S)-2-({5-[2-((S)-2-Cyclobutylcarbamoyl-pyrrolidin-1-yl)-2-oxo-ethoxy]-1-phenyl-1H-pyrazole-3-carbonyl}-amino)-4-isobutyrylamino-butyryl]-piperazine-1-carboxylic acid ethyl ester], the IC50 amounted to 197 nM.
The figure for `CCOC(=O)N1CCN(C(=O)[C@H](CCCCOCc2ccccc2)NC(=O)c2cc(OCC(=O)N3CCC[C@H]3C(=O)NC3CCC3)n(-c3ccccc3)n2)CC1` [Example 195, 4-[(S)-6-Benzyloxy-2-({5-[2-((S)-2-cyclobutylcarbamoyl-pyrrolidin-1-yl)-2-oxo-ethoxy]-1-phenyl-1H-pyrazole-3-carbonyl}-amino)-hexanoyl]-piperazine-1-carboxylic acid ethyl ester] is 88 nM.
Under `CCOC(=O)N1CCN(C(=O)[C@H](CCNC(=O)C(C)(C)C)NC(=O)c2cc(OCC(=O)N3CCC[C@H]3C(=O)NC3CCC3)n(-c3ccccc3)n2)CC1` [Example 99, 4-[(S)-2-({5-[2-((S)-2-Cyclobutylcarbamoyl-pyrrolidin-1-yl)-2-oxo-ethoxy]-1-phenyl-1H-pyrazole-3-carbonyl}-amino)-4-(2,2-dimethyl-propionylamino)-butyryl]-piperazine-1-carboxylic acid ethyl ester] stands 158 nM; under `CCOC(=O)N1CCN(C(=O)[C@H](CCC(=O)O)NC(=O)c2cc(OCC(=O)N3CCC[C@H]3C(=O)NCC(F)(F)F)n(-c3ccc(F)c(F)c3)n2)CC1` [Example 85, 4-((S)-4-Carboxy-2-{[5-[2-((S)-2-(2,2,2-trifluoroethylcarbamoyl)-pyrrolidin-1-yl)-2-oxo-ethoxy]-1-(3,4-difluoro-phenyl)-1H-pyrazole-3-carbonyl]-amino}-butyryl)-piperazine-1-carboxylic acid ethyl ester], 154 nM.
In the case of `CCOC(=O)N1CCN(C(=O)[C@H](CCC(=O)O)NC(=O)c2cc(OCC(=O)N3CCC[C@H]3C(=O)NCCSC)n(-c3ccccc3)n2)CC1` [Example 3, 4-{(S)-4-Carboxy-2-[(5-{2-[(S)-2-(2-methylsulfanyl-ethylcarbamoyl)-pyrrolidin-1-yl]-2-oxo-ethoxy}-1-phenyl-1H-pyrazole-3-carbonyl)-amino]-butyryl}-piperazine-1-carboxylic acid ethyl ester], the IC50 is 183 nM.
Under `CCCCOC(=O)CC[C@H](NC(=O)c1cc(OCC(=O)N2CCC[C@H]2C(=O)NC2CCC2)n(-c2ccccc2)n1)C(=O)N1CCN(C(=O)OCC)CC1` [Example 134, 4-[(S)-2-({5-[2-((S)-2-Cyclobutylcarbamoyl-pyrrolidin-1-yl)-2-oxo-ethoxy]-1-phenyl-1H-pyrazole-3-carbonyl}-amino)-4-butoxycarbonyl-butyryl]-piperazine-1-carboxylic acid ethyl ester] stands 42 nM; under `CCOC(=O)N1CCN(C(=O)[C@H](CCC(=O)OC(C)C)NC(=O)c2cc(OCC(=O)N3CCC[C@H]3C(=O)NC3CCC3)n(-c3ccccc3)n2)CC1` [Example 137, 4-[(S)-2-({5-[2-((S)-2-Cyclobutylcarbamoyl-pyrrolidin-1-yl)-2-oxo-ethoxy]-1-phenyl-1H-pyrazole-3-carbonyl}-amino)-4-isopropoxycarbonyl-butyryl]-piperazine-1-carboxylic acid ethyl ester], 148 nM; under `CCCCOC(=O)NC1CCN(C(=O)[C@H](CCC(=O)O)NC(=O)c2cc(OCC(=O)N3CCC[C@H]3C(=O)NC3CCC3)n(-c3ccccc3)n2)CC1` [Example 102, (S)-5-(4-Butoxycarbonylamino-piperidin-1-yl)-4-({5-[2-((S)-2-cyclobutylcarbamoyl-pyrrolidin-1-yl)-2-oxo-ethoxy]-1-phenyl-1H-pyrazole-3-carbonyl}-amino)-5-oxo-pentanoic acid], 58 nM.
The figure for `CCOC(=O)N1CCN(C(=O)[C@H](CNS(C)(=O)=O)NC(=O)c2cc(OCC(=O)N3CCC[C@H]3C(=O)NC3CCC3)n(-c3ccccc3)n2)CC1` [Example 88, 4-[(S)-2-({5-[2-((S)-2-Cyclobutylcarbamoyl-pyrrolidin-1-yl)-2-oxo-ethoxy]-1-phenyl-1H-pyrazole-3-carbonyl}-amino)-3-methanesulfonylamino-propionyl]-piperazine-1-carboxylic acid ethyl ester] is 125 nM.
Regarding `CCCCOC(=O)N1CCN(C(=O)[C@H](CC2CCCCC2)NC(=O)c2cc(OCC(=O)N3CCC[C@H]3C(=O)NC3CCC3)n(-c3ccccc3)n2)CC1` [Example 225, 4-[(S)-2-({5-[2-((S)-2-Cyclobutylcarbamoyl-pyrrolidin-1-yl)-2-oxo-ethoxy]-1-phenyl-1H-pyrazole-3-carbonyl}-amino)-3-cyclohexyl-propionyl]-piperazine-1-carboxylic acid butyl ester], the IC50 was found to be 136 nM.
Under `CCOC(=O)N1CCN(C(=O)[C@H](CCNS(C)(=O)=O)NC(=O)c2cc(OCC(=O)N3CCC[C@H]3C(=O)NC3CCC3)n(-c3ccccc3)n2)CC1` [Example 94, 4-[(S)-2-({5-[2-((S)-2-Cyclobutylcarbamoyl-pyrrolidin-1-yl)-2-oxo-ethoxy]-1-phenyl-1H-pyrazole-3-carbonyl}-amino)-4-methanesulfonylamino-butyryl]-piperazine-1-carboxylic acid ethyl ester] stands 59 nM.
Under `O=C(N[C@@H](CCCCOCc1ccccc1)C(=O)N1CCN(C(=O)OC2CCC2)CC1)c1cc(OCC(=O)N2CCC[C@H]2C(=O)NC2CCC2)n(-c2ccccc2)n1` [Example 197, 4-[(S)-6-Benzyloxy-2-({5-[2-((S)-2-cyclobutylcarbamoyl-pyrrolidin-1-yl)-2-oxo-ethoxy]-1-phenyl-1H-pyrazole-3-carbonyl}-amino)-hexanoyl]-piperazine-1-carboxylic acid cyclobutyl ester] stands 99 nM; under `CCOC(=O)N1CCN(C(=O)[C@H](CNC(=O)OC)NC(=O)c2cc(OCC(=O)N3CCC[C@H]3C(=O)NC3CCC3)n(-c3ccccc3)n2)CC1` [Example 89, 4-[(S)-2-({5-[2-((S)-2-Cyclobutylcarbamoyl-pyrrolidin-1-yl)-2-oxo-ethoxy]-1-phenyl-1H-pyrazole-3-carbonyl}-amino)-3-methoxycarbonylamino-propionyl]-piperazine-1-carboxylic acid ethyl ester], 111 nM; under `CCCCOC(=O)N1CCN(C(=O)C(NC(=O)c2cc(OCC(=O)N3CCC[C@H]3C(=O)NC3CCC3)n(-c3ccccc3)n2)C(C)F)CC1` (stereo partly drawn) [Example 176, 4-[2-({5-[2-((S)-2-Cyclobutylcarbamoyl-pyrrolidin-1-yl)-2-oxo-ethoxy]-1-phenyl-1H-pyrazole-3-carbonyl}-amino)-3-fluoro-butyryl]-piperazine-1-carboxylic acid butyl ester], 45 nM.

The values are drawn from patent publication US8426420B2, “Heterocyclic pyrazole-carboxamidesas P2Y12 antagonists” (Sanofi, priority 2007, dated 2013).
